Results as given in patent US9944967B2, “Methods for the site-selective introduction of halogen into natural products” (THE REGENTS OF THE UNIVERSITY OF CALIFORNIA, priority 2013, dated 2018).

Experiments:
DEBSMod6+TE [1] = biological target: T1, DEBSMod6+TE (Saccharopolyspora erythraea, UniProt Q03133); assay: Acyl-CoA hydrolysis by DEBSMod6+TE (DTNB assay); assay type: biochemical
T1 construct: the sixth module of DEBS, including the terminal thioesterase (DEBSMod6+TE); His6 (C); made in house; host or cells: E. coli BAP1
T1 sequence (Q03133 1492-3172): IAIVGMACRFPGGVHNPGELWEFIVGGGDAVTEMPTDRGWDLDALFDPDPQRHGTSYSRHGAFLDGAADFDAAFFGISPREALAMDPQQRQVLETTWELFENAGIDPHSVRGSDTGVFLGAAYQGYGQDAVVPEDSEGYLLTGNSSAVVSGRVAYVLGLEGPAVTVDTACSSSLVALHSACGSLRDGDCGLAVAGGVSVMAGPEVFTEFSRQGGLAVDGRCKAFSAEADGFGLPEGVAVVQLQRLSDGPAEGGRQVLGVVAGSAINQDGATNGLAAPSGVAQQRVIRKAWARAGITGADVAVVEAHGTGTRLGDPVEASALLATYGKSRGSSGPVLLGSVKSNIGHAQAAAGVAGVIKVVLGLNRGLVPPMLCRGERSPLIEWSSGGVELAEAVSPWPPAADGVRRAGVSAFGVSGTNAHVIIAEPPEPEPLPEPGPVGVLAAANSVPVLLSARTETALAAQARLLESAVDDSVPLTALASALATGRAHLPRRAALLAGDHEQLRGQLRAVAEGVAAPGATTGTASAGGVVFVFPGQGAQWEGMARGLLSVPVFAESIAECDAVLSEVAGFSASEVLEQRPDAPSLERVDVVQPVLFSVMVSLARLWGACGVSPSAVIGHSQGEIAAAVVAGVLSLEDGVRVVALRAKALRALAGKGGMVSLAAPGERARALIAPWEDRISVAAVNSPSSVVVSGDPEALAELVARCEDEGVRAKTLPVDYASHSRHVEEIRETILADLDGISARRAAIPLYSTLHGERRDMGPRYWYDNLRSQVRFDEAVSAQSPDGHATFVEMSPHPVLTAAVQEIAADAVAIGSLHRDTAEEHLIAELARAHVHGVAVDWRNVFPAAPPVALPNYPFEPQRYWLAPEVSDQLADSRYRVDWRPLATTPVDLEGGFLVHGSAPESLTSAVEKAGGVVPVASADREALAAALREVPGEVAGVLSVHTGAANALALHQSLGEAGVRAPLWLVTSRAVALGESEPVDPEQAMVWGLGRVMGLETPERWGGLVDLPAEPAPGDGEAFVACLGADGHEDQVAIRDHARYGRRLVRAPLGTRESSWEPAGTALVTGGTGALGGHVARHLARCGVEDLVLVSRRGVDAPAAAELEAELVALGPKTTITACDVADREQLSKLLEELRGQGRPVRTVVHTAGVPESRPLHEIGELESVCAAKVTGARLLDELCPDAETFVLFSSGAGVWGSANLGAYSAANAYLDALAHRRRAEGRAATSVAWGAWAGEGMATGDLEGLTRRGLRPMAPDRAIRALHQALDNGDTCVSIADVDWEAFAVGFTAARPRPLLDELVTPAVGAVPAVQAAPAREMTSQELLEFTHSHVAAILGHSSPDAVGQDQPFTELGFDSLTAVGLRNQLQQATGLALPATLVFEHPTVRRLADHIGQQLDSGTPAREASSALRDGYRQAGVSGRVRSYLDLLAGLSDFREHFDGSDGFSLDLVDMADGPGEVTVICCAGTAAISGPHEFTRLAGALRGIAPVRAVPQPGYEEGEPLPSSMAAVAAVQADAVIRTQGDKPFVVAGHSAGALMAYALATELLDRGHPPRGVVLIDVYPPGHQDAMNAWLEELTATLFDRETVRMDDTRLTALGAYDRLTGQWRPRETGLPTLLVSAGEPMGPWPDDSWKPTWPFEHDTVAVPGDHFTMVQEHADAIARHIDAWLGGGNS
Method: Hydrolytic activity of DEBSMod6+TE was measured by monitoring the reaction of free CoA with DTNB as described previously (Huang, F., et al., Chem. Biol., 13:475-484 (2006)). Assays were performed at 37° C. in a total volume of 200 μL containing 400 mM sodium phosphate, pH 7.5, 500 μM DTNB, and DEBSMod6+TE (1 μM). Reactions were initiated by addition of acyl-CoA (0.5 mM) and monitored at 412 nm in a Beckman Coulter DU-800 spectrophotometer. Release of CoA was quantified by comparison to a standard curve (5-100 μM).

DEBSMod6+TE [2] = assay: Covalent inhibition assay for DEBSMod6+TE; assay type: biochemical; details: 18 h incubation in F-TKL reaction, then tested for TKL production; preliminary
Method: Two triketide reaction mixtures (200 μL) were prepared as described above, one containing fluoromalonate (10 mM) and the other methylmalonate (10 mM). DEBSMod6+TE (10 μM) and NDK-SNAC (2.5 mM) were added to each and the reactions were incubated at 37° C. for 18 h. The protein fraction was isolated from each mixture at room temperature by desalting on a Sephadex G-25 column (3 mL) using 400 mM sodium phosphate, pH 7.5. Fractions were pooled by Bradford assay and concentrated to 200 μL using Amicon Ultra spin concentrators (3 kDa MWCO). The isolated DEBSMod6+TE was assayed by adding TCEP (2.5 mM), methylmalonyl-CoA (1 mM) and NDK-SNAC (1 mM) to this mixture to give a final volume of 210 μL and incubating at 37° C. for 3 h, then analyzed by HPLC as described above.

[3] = Stability of fluoromalonyl-CoA solutions; assay type: physicochemical; details: room temperature; in water or D2O
Method: Fluoromalonyl-CoA was prepared enzymatically from fluoromalonate and CoA using MatB and ATP. A myokinase/pyruvate kinase/PEP system was also used to regenerate ATP in order to avoid high concentrations of AMP that might inhibit MatB. The reaction mixture (10 mL) contained 100 mM sodium phosphate, pH 7.5, phosphoenolpyruvate (5 mM), TCEP (2.5 mM), magnesium chloride (5 mM), fluoromalonate (2.5 mM), ATP (2.5 mM), pyruvate kinase (36 U), myokinase (20 U), CoA (2 mM) and MatB (5 μM). The mixture was incubated at 37° C. for 6 h and then at room temperature for 16 h before lyophilizing overnight. The residue was dissolved in water (1.6 mL) and acidified to pH ˜2 by addition of 70% perchloric acid (160 μL). Insoluble material was removed by centrifugation at 18,000×g for 10 min. […] HR-ESI-MS [M−H]^−: calculated for C24H36FN2O19P3S, m/z, 870.0989. found m/z 870.0991.

[4] = test system: malonyl-CoA synthetase (MatB); assay: Malonyl-CoA synthetase (MatB) coupled assay; assay type: biochemical, S. coelicolor
Method: MatB activity was measured using a modified literature method (Williamson, J. R., et al., Method. Enzymol., 434-513 (1969)). The production of AMP was coupled to pyruvate formation by myokinase and pyruvate kinase, which in turn was coupled to NADH oxidation by lactate dehydrogenase. Assays were performed at 30° C. in a total volume of 200 μL containing 100 mM HEPES, pH 7.5, TCEP (1 mM), ATP (2.5 mM), magnesium chloride (5 mM), phosphoenolpyruvate (1 mM), NADH (0.3 mM), myokinase (0.5 U), pyruvate kinase (3.6 U), lactate dehydrogenase (2.6 U), dicarboxylic acid (25 μM-1 mM malonate, 50 μM-10 mM fluoromalonate or 25 μM-1.5 mM methylmalonate) and MatB (26 nM for malonate, 1 μM for fluoromalonate and 200 nM for methylmalonate). The reaction was initiated with addition of CoA (0.5 mM) and monitored at 340 nm in a Beckman Coulter DU-800 spectrophotometer.

Molecule | v0 (rate of acyl-CoA hydrolysis) (DEBSMod6+TE [1]; DEBSMod6 + TE (1 μM), acyl-CoA (500 μM), mean ± s.d. (n = 4)) [µM/min] | Relative rate of acyl-CoA hydrolysis (DEBSMod6+TE [1]; relative to methylmalonyl-CoA) | covalent inactivation of DEBSMod6+TE (DEBSMod6+TE [2]) | stability of solutions [3] | selectivity of MatB for malonate over fluoromalonate [4] [fold]
CC(C)(COP(=O)(O)OP(=O)(O)OC[C@H]1O[C@@H](n2cnc3c(N)ncnc32)[C@H](O)[C@@H]1OP(=O)(O)O)[C@@H](O)C(=O)NCCC(=O)NCCSC(=O)C(F)C(=O)O (some centres unmarked) [Fluoromalonyl-CoA] | 3.5 ± 0.3 | 2.6 | not due to covalent inactivation of the enzyme | at least 24 h | 
Fluoromalonate |  |  |  |  | 103
